Read-outs that look alike come from different tables or passages of the source.
Experiments:
[1] = biological target: T1, human M4 receptor (Homo sapiens, UniProt P08173); assay: human M4 positive allosteric modulator potency assay; format: cell-based; conditions: human M4 PAM; mean of at least 3 experiments
T1 sequence (P08173 1-479): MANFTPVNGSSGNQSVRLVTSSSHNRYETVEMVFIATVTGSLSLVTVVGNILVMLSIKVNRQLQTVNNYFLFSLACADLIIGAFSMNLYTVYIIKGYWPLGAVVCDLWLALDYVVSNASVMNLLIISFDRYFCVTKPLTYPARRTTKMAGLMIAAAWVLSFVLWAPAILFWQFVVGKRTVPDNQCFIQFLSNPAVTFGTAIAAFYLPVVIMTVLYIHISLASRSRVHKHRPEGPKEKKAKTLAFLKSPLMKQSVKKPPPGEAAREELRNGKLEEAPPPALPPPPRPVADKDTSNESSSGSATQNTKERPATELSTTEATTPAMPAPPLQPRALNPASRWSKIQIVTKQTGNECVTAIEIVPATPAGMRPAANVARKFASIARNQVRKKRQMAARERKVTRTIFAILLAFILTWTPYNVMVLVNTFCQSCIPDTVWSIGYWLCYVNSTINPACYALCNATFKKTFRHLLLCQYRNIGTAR

[2] = biological target: T1, human M4 receptor; conditions: cited from earlier work
[3] = biological target: T2, rat M4 receptor (Rattus norvegicus, UniProt P08485); conditions: read-out: rat M4 potency; cited from earlier work
T2 sequence (P08485 1-478): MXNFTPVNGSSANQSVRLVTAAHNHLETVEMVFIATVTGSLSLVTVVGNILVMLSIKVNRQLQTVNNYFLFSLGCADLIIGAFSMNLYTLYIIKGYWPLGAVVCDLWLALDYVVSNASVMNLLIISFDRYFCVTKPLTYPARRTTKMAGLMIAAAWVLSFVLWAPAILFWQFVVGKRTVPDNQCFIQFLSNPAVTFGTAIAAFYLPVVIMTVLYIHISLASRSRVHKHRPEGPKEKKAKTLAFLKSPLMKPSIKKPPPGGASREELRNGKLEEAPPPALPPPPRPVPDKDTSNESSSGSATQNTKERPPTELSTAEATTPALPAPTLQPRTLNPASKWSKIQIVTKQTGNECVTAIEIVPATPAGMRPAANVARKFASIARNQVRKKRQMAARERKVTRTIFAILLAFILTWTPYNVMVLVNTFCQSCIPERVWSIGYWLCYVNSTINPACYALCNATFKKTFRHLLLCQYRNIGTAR

[4] = in vitro PK: predicted hepatic clearance, human; format: in vitro ADME
[5] = in vitro PK: predicted hepatic clearance, rat; format: in vitro ADME; conditions: for predicted clearance in the rat (CLHEP), in words: in vitro PK prediction; for rCLHEP: in vitro predicted hepatic clearance
[6] = rat equilibrium dialysis plasma protein binding; format: in vitro ADME; conditions: fraction unbound
[7] = biological target: T3, hM2 (Homo sapiens, UniProt P08172); assay: muscarinic selectivity hM2; format: cell-based
T3 sequence (P08172 1-466): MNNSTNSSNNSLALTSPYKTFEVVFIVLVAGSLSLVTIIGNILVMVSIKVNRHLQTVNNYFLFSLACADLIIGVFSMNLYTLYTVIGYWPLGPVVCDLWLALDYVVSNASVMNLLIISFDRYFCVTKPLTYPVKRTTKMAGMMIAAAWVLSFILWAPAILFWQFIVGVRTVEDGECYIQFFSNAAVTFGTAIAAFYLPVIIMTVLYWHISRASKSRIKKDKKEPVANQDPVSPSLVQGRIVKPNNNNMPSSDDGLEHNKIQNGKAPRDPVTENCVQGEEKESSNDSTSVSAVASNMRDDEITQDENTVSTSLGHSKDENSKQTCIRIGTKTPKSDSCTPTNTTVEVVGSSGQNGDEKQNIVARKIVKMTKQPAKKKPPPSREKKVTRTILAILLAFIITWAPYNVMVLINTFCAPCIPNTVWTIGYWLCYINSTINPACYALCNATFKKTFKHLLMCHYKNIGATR

[8] = biological target: T4, rM2 (Rattus norvegicus, UniProt P10980); assay: muscarinic selectivity rM2; format: cell-based
T4 sequence (P10980 1-466): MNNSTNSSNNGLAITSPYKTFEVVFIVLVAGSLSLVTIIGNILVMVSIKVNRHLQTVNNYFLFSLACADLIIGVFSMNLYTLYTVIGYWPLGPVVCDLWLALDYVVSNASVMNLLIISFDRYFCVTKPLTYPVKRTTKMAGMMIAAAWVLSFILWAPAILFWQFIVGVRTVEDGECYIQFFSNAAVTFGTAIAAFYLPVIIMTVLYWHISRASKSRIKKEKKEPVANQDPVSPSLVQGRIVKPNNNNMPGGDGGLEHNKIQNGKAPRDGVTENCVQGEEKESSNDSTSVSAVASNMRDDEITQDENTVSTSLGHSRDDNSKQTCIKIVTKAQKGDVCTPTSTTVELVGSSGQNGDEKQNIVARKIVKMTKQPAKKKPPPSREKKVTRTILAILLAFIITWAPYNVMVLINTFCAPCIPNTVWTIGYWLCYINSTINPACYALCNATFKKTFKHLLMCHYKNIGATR

[9] = tested on: other four mAChR subtypes (M1, M2, M3, M5); assay: selectivity against the other four mAChR subtypes; format: cell-based; conditions: read-out: activity against all four other mAChR subtypes

| Structure (SMILES) | pEC50 ± SEM [1] | also measured |
| --- | --- | --- |
| Cc1nc2sc(C(=O)NC(C)c3ccccn3)c(N)c2c(C)c1Cl (centres unmarked) [Compound 10] | 5.86 ± 0.07 | – |
| Cc1nc2sc(C(=O)NCc3nccs3)c(N)c2c(C)c1Cl [Compound 24] | 6.60 ± 0.07 | – |
| COc1nc2sc(C(=O)NC3CC3)c(N)c2c(C)c1Cl [LY2033298] | – | EC50 ([2]; read-out: human M4 potency, human receptor): 0.065 µM; EC50 [3]: 0.629 µM |
| Cc1nc2sc(C(=O)NCCc3ccccn3)c(N)c2c(C)c1Cl [Compound 13] | 6.07 ± 0.06 | – |
| COc1ccc(C)c2sc(NC(=O)c3ccncc3)nc12 [ML293] | – | EC50 ([2]; read-out: hM4 potency, previously reported probe, ref 9d): 1.3 µM |
| Cc1nc2sc(C(=O)NC3COC3)c(N)c2c(C)c1Cl [Compound 30] | 5.70 ± 0.24 | – |
| Cc1nc2sc(C(=O)NC3CC3)c(N)c2c(C)c1Cl [Compound 3] | 7.11 ± 0.32 | hCLHEP [4]: 0.834 L/h/kg; predicted clearance in the rat (CLHEP), in words [5]: high clearance; rCLHEP [5]: 3.06 L/h/kg; rPPB (%fu) [6]: ~ 2%; EC50 [7]: ~0.6 µM; EC50 [8]: ~0.6 µM |
| Cc1nc2sc(C(=O)NC(C)(C)C)c(N)c2c(C)c1Cl [Compound 34] | 6.51 ± 0.05 | – |
| Cc1nc2sc(C(=O)NCc3ccnnc3)c(N)c2c(C)c1Cl [Compound 17] | 6.49 ± 0.08 | – |
| Cc1nc2sc(C(=O)NC(C)c3cccnc3)c(N)c2c(C)c1Cl (centres unmarked) [Compound 8] | 6.17 ± 0.08 | – |
| Cc1nc2sc(C(=O)NCc3ccc4c(c3)OCO4)c(N)c2c(C)c1Cl [Compound 18] | 7.09 ± 0.08 | – |
| Cc1nc2sc(C(=O)NCc3ccncc3)c(N)c2c(C)c1Cl [Compound 4, 3-amino-5-chloro-4,6-dimethyl-N-(pyridinyl-4-methyl)thieno[2,3-b]pyridine-2-carboxamide] | – | predicted clearance in the rat (CLHEP), in words [5]: high clearance; rCLHEP [5]: 3.31 L/h/kg; EC50 [9]: > 30 µM |

Further lines, with some results ahead:

| pEC50 ± SEM [1] | Structure (SMILES) | also measured |
| --- | --- | --- |
| 6.83 ± 0.06 | Cc1nc2sc(C(=O)NC(C)C)c(N)c2c(C)c1Cl [Compound 31] | – |
| 6.81 ± 0.07 | Cc1nc2sc(C(=O)NCc3ccccc3Cl)c(N)c2c(C)c1Cl [Compound 21] | – |
| 6.81 ± 0.28 | Cc1nc2sc(C(=O)NCc3ccc(F)c(F)c3)c(N)c2c(C)c1Cl [Compound 20] | – |
| 6.75 ± 0.14 | Cc1nc2sc(C(=O)NCc3ccc(Cl)cc3)c(N)c2c(C)c1Cl [Compound 23] | – |
| 6.65 ± 0.03 | Cc1nc2sc(C(=O)NC3CCCCC3)c(N)c2c(C)c1Cl [Compound 32] | – |
| 7.28 ± 0.07 | Cc1nc2sc(C(=O)NC3CCOC3)c(N)c2c(C)c1Cl (centres unmarked) [Compound 29] | – |
| 6.98 ± 0.10 | Cc1ccc(CNC(=O)c2sc3nc(C)c(Cl)c(C)c3c2N)cc1 [Compound 22] | – |
| 6.03 ± 0.07 | Cc1nc2sc(C(=O)NCCC3CCCN3C)c(N)c2c(C)c1Cl (centres unmarked) [Compound 36] | – |
| 7.21 ± 0.05 | Cc1cc(CNC(=O)c2sc3nc(C)c(Cl)c(C)c3c2N)ccn1 [Compound 6] | – |
| 6.57 ± 0.06 | Cc1nc2sc(C(=O)NCc3ccncn3)c(N)c2c(C)c1Cl [Compound 15] | – |
| 6.91 ± 0.05 | Cc1nc2sc(C(=O)NCc3cccc(F)c3F)c(N)c2c(C)c1Cl [Compound 2] | – |
| 5.76 ± 0.27 | Cc1nc2sc(C(=O)NCc3ccc(C(F)(F)F)cc3)c(N)c2c(C)c1Cl [Compound 25] | – |
| 6.89 ± 0.09 | Cc1nc2sc(C(=O)NCCc3ccncc3)c(N)c2c(C)c1Cl [Compound 11] | – |
| 6.97 ± 0.05 | Cc1nc2sc(C(=O)NCc3ccccc3)c(N)c2c(C)c1Cl [Compound 19] | – |

— paper PMC3535830 (Bioorganic & medicinal chemistry letters, 2012)
